Among the data in ChEMBL document CHEMBL3774366, “Synthesis, and docking studies of phenylpyrimidine-carboxamide derivatives bearing 1H-pyrrolo[2,3-b]pyridine moiety as c-Met inhibitors” (Bioorg Med Chem, 2016) are IC50 values, retold here.

One assay concerns A549. The assay is described as follows: Cytotoxicity against human A549 cells after 72 hrs by MTT assay.
For assay [1], the system named is MCF7.
Description: (§1) Cytotoxicity against human MCF7 cells after 72 hrs by MTT assay
For assay [2], the system named is MCF7. Put plainly: cells. The following applies: Homo sapiens, MCF7, 72 h.
Description: as §1
A further assay is described as follows: cells. The following applies: Homo sapiens, PC-3, 72 h.
The subject of a further assay is HepG2. Put plainly: Cytotoxicity against human HepG2 cells after 72 hrs by MTT assay. Type of assay: functional, cell-based. Particulars: HepG2, 72 h; call rule not given here. On the technique in general: Formazan colour is commonly taken as a measure of viable cells.
Assay [3] concerns the target Hepatocyte growth factor receptor (Homo sapiens, UniProt P08581). The assay is described as follows: Inhibition of c-Met (unknown origin) using FAM-labeled peptide substrate after 10 mins by mobility shift assay.
Another assay relates to HeLa. The assay is described as follows: Cytotoxicity against human HeLa cells after 72 hrs by MTT assay. Type of assay: functional, cell-based.

Sequence of Hepatocyte growth factor receptor (P08581 whole entry): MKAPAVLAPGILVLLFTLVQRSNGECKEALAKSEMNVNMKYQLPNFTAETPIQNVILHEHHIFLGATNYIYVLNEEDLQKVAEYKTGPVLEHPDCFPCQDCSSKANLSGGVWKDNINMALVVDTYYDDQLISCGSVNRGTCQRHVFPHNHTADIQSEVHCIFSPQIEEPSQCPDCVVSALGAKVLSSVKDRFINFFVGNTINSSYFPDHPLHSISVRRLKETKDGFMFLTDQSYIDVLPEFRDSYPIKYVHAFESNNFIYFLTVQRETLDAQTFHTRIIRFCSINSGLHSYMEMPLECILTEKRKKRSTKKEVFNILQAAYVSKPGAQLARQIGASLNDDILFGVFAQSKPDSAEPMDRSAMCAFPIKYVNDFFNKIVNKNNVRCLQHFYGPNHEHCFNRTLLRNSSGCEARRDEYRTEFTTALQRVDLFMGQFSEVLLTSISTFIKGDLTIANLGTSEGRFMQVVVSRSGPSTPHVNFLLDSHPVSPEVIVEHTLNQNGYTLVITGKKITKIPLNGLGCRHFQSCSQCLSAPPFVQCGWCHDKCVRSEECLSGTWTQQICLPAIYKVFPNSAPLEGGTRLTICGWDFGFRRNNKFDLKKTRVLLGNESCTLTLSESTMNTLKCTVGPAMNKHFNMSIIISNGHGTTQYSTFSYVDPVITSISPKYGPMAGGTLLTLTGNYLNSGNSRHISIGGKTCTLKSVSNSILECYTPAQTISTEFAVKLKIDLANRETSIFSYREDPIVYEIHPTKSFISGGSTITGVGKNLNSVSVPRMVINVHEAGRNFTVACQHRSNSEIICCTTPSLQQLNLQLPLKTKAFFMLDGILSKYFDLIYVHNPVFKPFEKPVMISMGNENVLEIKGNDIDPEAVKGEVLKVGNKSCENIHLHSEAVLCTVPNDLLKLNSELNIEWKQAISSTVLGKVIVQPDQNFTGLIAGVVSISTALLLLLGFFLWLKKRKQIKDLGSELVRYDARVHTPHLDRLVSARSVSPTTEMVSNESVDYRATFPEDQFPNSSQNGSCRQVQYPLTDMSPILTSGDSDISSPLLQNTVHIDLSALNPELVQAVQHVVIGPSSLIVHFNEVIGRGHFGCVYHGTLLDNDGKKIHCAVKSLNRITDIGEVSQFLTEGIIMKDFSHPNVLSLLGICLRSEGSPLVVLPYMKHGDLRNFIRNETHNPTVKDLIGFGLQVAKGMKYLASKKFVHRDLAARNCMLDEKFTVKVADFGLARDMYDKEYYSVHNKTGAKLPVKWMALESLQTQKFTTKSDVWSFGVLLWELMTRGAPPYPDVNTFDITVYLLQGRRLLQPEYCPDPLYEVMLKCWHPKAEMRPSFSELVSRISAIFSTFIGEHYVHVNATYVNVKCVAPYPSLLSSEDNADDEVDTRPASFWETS

Broadly, the IC50 is the concentration needed to halve the response being measured. As for `O=C(Nc1ccc(Oc2ccnc3[nH]ccc23)c(F)c1)c1cc(-c2ccc(F)cc2)ncn1`, the IC50 in the assay on A549 (Homo sapiens, A549, 72 h) is 14.2 µM; in the assay with MCF7 [1], “Not Active”.
With `O=C(Nc1ccc(Oc2ccnc3[nH]ccc23)cc1)c1cc(-c2ccc(F)cc2)ncn1`, the IC50 amounted to 15.9 µM in the assay on MCF7 [2] and 13 µM in the assay with A549 (Homo sapiens, A549, 72 h).
As to `COc1ccc(-c2ccnc(C(=O)Nc3ccc(Oc4ccnc5[nH]ccc45)cc3)n2)cc1`, the IC50 in the assay on MCF7 [2] worked out at 12.4 µM; with A549 (Homo sapiens, A549, 72 h), 13.3 µM; in the assay “cells”, 17.3 µM.
Turning to `O=C(Nc1ccc(Oc2ccnc3[nH]ccc23)cc1)c1nccc(-c2cccc(Cl)c2)n1`, the IC50 was 10.2 µM in the assay on MCF7 [2]; 4.12 µM with A549 (Homo sapiens, A549, 72 h); 7.8 µM in “cells”.
Regarding `COc1ccc(-c2cc(C(=O)Nc3ccc(Oc4ccnc5[nH]ccc45)cc3)ncn2)cc1`, the IC50 was found to be 4.45 µM with MCF7 [2]; 4.41 µM in the assay with A549 (Homo sapiens, A549, 72 h); 9.83 µM in the assay “cells”.
As to `O=C(Nc1ccc(Oc2ccnc3[nH]ccc23)cc1)c1cc(-c2ccccc2)ncn1`, the IC50 worked out at 0.02 µM in the assay with MCF7 [2]; 3.11 µM with HepG2; 120 nM in assay [3]; 0.4 µM in the assay on HeLa; 0.14 µM in the assay with A549 (Homo sapiens, A549, 72 h); 0.24 µM in “cells”.
As for `O=C(Nc1ccc(Oc2ccnc3[nH]ccc23)c(F)c1)c1nccc(-c2ccc([N+](=O)[O-])cc2)n1`, the IC50 was 4.47 µM in the assay on A549 (Homo sapiens, A549, 72 h); “Not Active” with MCF7 [1]; 12.1 µM in the assay “cells”.
With `O=C(Nc1ccc(Oc2ccnc3[nH]ccc23)c(F)c1)c1cc(-c2ccc(Cl)cc2)ncn1`, the IC50 was 26.9 µM in the assay with MCF7 [2]; 3.36 µM with A549 (Homo sapiens, A549, 72 h); 3.2 µM in “cells”.
Turning to `O=C(Nc1ccc(Oc2ccnc3[nH]ccc23)c(F)c1)c1cc(-c2ccc(Br)cc2)ncn1`, the IC50 in the assay with MCF7 [2] stood at 10.3 µM; in the assay with A549 (Homo sapiens, A549, 72 h), 6.98 µM; in the assay “cells” it was 11.3 µM.
As to `Cc1ccc(-c2ccnc(C(=O)Nc3ccc(Oc4ccnc5[nH]ccc45)c(F)c3)n2)cc1`, the half-inhibitory concentration (IC50) in the assay on MCF7 [2] stood at 7.17 µM; in the assay on HepG2, 16.4 µM; in assay [3], 3400 nM; in the assay with HeLa it was 5.51 µM; with A549 (Homo sapiens, A549, 72 h) it was 1.15 µM; in the assay “cells”, 0.52 µM.
Consider `COc1ccc(-c2cc(C(=O)Nc3ccc(Oc4ccnc5[nH]ccc45)c(F)c3)ncn2)cc1`, for which the IC50 was determined as 10.4 µM in the assay on MCF7 [2]; 4.21 µM in the assay on A549 (Homo sapiens, A549, 72 h); 2.57 µM in “cells”.
In the case of `Cc1ccc(-c2cc(C(=O)Nc3ccc(Oc4ccnc5[nH]ccc45)cc3)ncn2)cc1`, the IC50 was 1.62 µM in the assay on MCF7 [2]; 5.41 µM in the assay on A549 (Homo sapiens, A549, 72 h); 9.88 µM in “cells”.
For `Cc1ccc(-c2cc(C(=O)Nc3ccc(Oc4ccnc5[nH]ccc45)c(F)c3)ncn2)cc1`, the IC50 came out at 6.73 µM with MCF7 [2]; 8.6 µM in the assay with A549 (Homo sapiens, A549, 72 h); 24.9 µM in “cells”.
Turning to `O=C(Nc1ccc(Oc2ccnc3[nH]ccc23)cc1)c1cc(-c2ccc(Br)cc2)ncn1`, the IC50 is 3.84 µM with MCF7 [2]; 9.87 µM with A549 (Homo sapiens, A549, 72 h); 2.61 µM in “cells”.
In the case of `Cc1ccc(-c2ccnc(C(=O)Nc3ccc(Oc4ccnc5[nH]ccc45)cc3)n2)cc1`, the IC50 worked out at 6.41 µM in the assay with MCF7 [2]; 2.38 µM with A549 (Homo sapiens, A549, 72 h); 6.14 µM in the assay “cells”.
Consider `O=C(Nc1ccc(Oc2ccnc3[nH]ccc23)c(F)c1)c1nccc(-c2ccc(Cl)cc2)n1`, for which the IC50 in the assay with MCF7 [2] turned out to be 9.66 µM; in the assay on A549 (Homo sapiens, A549, 72 h), 8.94 µM; in the assay “cells” it was 14.6 µM.
Consider `O=C(Nc1ccc(Oc2ccnc3[nH]ccc23)cc1)c1cc(-c2ccc(C(F)(F)F)cc2)ncn1`, for which the half-inhibitory concentration (IC50) was 6.24 µM with MCF7 [2]; 9.38 µM with A549 (Homo sapiens, A549, 72 h); 2.16 µM in “cells”.
Taken in the same sequence, the figures for `COc1ccc(-c2ccnc(C(=O)Nc3ccc(Oc4ccnc5[nH]ccc45)c(F)c3)n2)cc1` were 8.96 µM, 5.43 µM and 14.1 µM.
For `O=C(Nc1ccc(Oc2ccnc3[nH]ccc23)c(F)c1)c1nccc(-c2cccc(Cl)c2)n1`, the IC50 was 1.58 µM in the assay with MCF7 [2]; 9.34 µM in the assay with HepG2; 2200 nM in assay [3]; 3.35 µM with HeLa; 0.45 µM in the assay with A549 (Homo sapiens, A549, 72 h); 1.38 µM in “cells”.
Regarding `O=C(Nc1ccc(Oc2ccnc3[nH]ccc23)cc1)c1cc(-c2ccc(Cl)cc2)ncn1`, the IC50 with MCF7 [2] turned out to be 7.77 µM; in the assay on A549 (Homo sapiens, A549, 72 h) it was 6.53 µM; in the assay “cells”, 15.6 µM.
Regarding `O=C(Nc1ccc(Oc2ccnc3[nH]ccc23)c(F)c1)c1cc(-c2ccccc2)ncn1`, the IC50 in the assay with MCF7 [2] turned out to be 4.64 µM; with HepG2, 9.61 µM; in assay [3] it was 980 nM; with HeLa, 2.86 µM; in the assay on A549 (Homo sapiens, A549, 72 h), 0.18 µM; in the assay “cells”, 0.04 µM.
Turning to `O=C(Nc1ccc(Oc2ccnc3[nH]ccc23)cc1)c1nccc(-c2ccc(Cl)cc2)n1`, the IC50 in the assay with A549 (Homo sapiens, A549, 72 h) is 22.4 µM; in the assay on MCF7 [1] it was “Not Active”.
For `O=C(Nc1ccc(Oc2ccnc3[nH]ccc23)c(F)c1)c1cc(-c2ccc(C(F)(F)F)cc2)ncn1`, the IC50 was 2.84 µM in the assay with MCF7 [2]; 2.22 µM with A549 (Homo sapiens, A549, 72 h); 4.12 µM in the assay “cells”.
`O=C(Nc1ccc(Oc2ccnc3[nH]ccc23)cc1)c1nccc(-c2ccc(F)cc2)n1`: the IC50 result in the assay on A549 (a549) and in the assay with MCF7 [1] was “Not Active” each time.
